Results published in US10072006B2 (MUTABILIS, priority 2015, dated 2018).
Counter-ions that a name gives are not always drawn.

What was measured:
TEM-1 = molecular target: T1, TEM-1 (Escherichia coli, UniProt P62593); test: β-lactamase inhibitory activity, determination of IC50 (nitrocefin hydrolysis); format: biochemical; settings: class (A), 30 min pre-incubation
T1 construct: made in house; host or cells: E. coli

[1] = tested on: C. murliniae 210102 (VIM-4); test: MIC of compounds and synergy with ceftazidime (broth microdilution); format: cell-based; settings: strain 210102 (C. murliniae)
Description: (§1) Briefly, compounds alone according to the invention were prepared in DMSO and spotted (2 μL each) on sterile polystyrene plates (Corning, 3788). […] Microplates were incubated for 16-20 h at 35° C. in ambient air. The MIC of the compounds was defined as the lowest concentration of said compounds that prevented bacterial growth as read by visual inspection.

[2] = tested on: E. cloacae P99 (Derepressed ampC); test: as above; format: cell-based; settings: strain P99 (E. cloacae)
Description: as §1

[3] = tested on: E. cloacae UFR38 (CTX-M-15, NDM-1); test: as above; format: cell-based; settings: strain UFR38 (E. cloacae)
Description: as §1

[4] = tested on: E. coli 131119 (TEM-1, OXA-48); test: as above; format: cell-based; settings: strain 131119 (E. coli)
Description: as §1

E. coli RGN238 (OXA-1) = test: as above; format: cell-based; settings: strain RGN238 (E. coli)
Description: as §1

[5] = tested on: E. coli UFR18 (CTX-M-15, OXA-204); test: as above; format: cell-based; settings: strain UFR18 (E. coli)
Description: as §1

[6] = tested on: E. coli UFR32 (TEM-1, VEB-1, OXA-10); test: as above; format: cell-based; settings: strain UFR32 (E. coli)
Description: as §1

[7] = tested on: E. coli UFR52 (TEM-1, SHV-12, IMP-8); test: as above; format: cell-based; settings: strain UFR52 (E. coli)
Description: as §1

[8] = tested on: E. coli UFR61O (TEM-1, KPC-2); test: as above; format: cell-based
Description: as §1

[9] = tested on: E. coli UFR74 (SHV-1, DHA-1); test: as above; format: cell-based; settings: strain UFR74 (E. coli)
Description: as §1

[10] = tested on: K. pneumoniae 6299 (TEM-1, SHV-11, OXA-163); test: as above; format: cell-based; settings: strain 6299 (K. pneumoniae)
Description: as §1

[11] = tested on: K. pneumoniae BAA-1898 (TEM-1, SHV-11, SHV-12, KPC-2); test: as above; format: cell-based; settings: strain BAA-1898 (K. pneumoniae)
Description: as §1

[12] = tested on: K. pneumoniae UFR24 (TEM-1, SHV-2, SHV-11, OXA-1, OXA-48, OXA-47); test: as above; format: cell-based; settings: strain UFR24 (K. pneumoniae)
Description: as §1

[13] = tested on: K. pneumoniae UFR77 (CMY-2); test: as above; format: cell-based; settings: strain UFR77 (K. pneumoniae)
Description: as §1

[14] = tested on: P. aeruginosa CIP105250 (OXA-15); test: as above; format: cell-based; settings: strain CIP105250 (P. aeruginosa)
Description: as §1

[15] = tested on: P. aeruginosa CIP107051 (TEM-24); test: as above; format: cell-based; settings: strain CIP107051 (P. aeruginosa)
Description: as §1

[16] = tested on: P. aeruginosa UFR35 (OXA-23); test: as above; format: cell-based; settings: strain UFR35 (P. aeruginosa)
Description: as §1

[17] = tested on: P. aeruginosa UFR47 (VIM-1); test: as above; format: cell-based; settings: strain UFR47 (P. aeruginosa)
Description: as §1

[18] = tested on: P. aeruginosa UFR48 (VIM-2); test: as above; format: cell-based; settings: strain UFR48 (P. aeruginosa)
Description: as §1

[19] = tested on: P. aeruginosa UFR59 (IMP-29); test: as above; format: cell-based; settings: strain UFR59 (P. aeruginosa)
Description: as §1

[20] = MIC of ceftazidime with compound fixed at 4 μg/mL
[21] = Enterobacter cloacae, 18 h, read-out: MIC compounds of the invention alone
[22] = Escherichia coli, 18 h, read-out: MIC compounds of the invention alone
[23] = Klebsiella pneumoniae, 18 h, read-out: MIC compounds of the invention alone
[24] = Pseudomonas aeruginosa, 18 h, read-out: MIC compounds of the invention alone

T1 sequence (P62593 24-286 limits assumed): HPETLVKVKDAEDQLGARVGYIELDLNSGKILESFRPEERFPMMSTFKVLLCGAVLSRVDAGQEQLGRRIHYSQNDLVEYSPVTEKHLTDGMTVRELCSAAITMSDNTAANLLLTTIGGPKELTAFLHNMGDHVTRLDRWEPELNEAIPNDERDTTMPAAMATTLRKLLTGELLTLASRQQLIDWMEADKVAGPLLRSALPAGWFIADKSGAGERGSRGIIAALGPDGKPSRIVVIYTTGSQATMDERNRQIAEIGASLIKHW

SMILES: NC[C@@H]1C=C(c2cnco2)[C@@H]2CN1C(=O)N2OS(=O)(=O)O (relative stereo) [Example 1, Sodium and 2,2,2-trifluoroacetate [trans-2-(azaniumylmethyl)-4-oxazol-5-yl-7-oxo-1,6-diazabicyclo[3.2.1]oct-3-en-6-yl] sulfate]
- IC50 (TEM-1): 3.2 nM
- MIC ([1]; 18 h, read-out: MIC compounds of the invention alone): > 32 µg/mL
- MIC, combination of CAZ and compounds of the invention [1, 20]: 0.5 µg/mL
- MIC [2, 21]: 0.031 µg/mL
- MIC, combination of CAZ and compounds of the invention [2, 20]: <0.25 µg/mL
- MIC [3, 21]: ≤ 0.016 µg/mL
- MIC, combination of CAZ and compounds of the invention [3, 20]: <0.25 µg/mL
- MIC [4, 22]: 32 µg/mL
- MIC, combination of CAZ and compounds of the invention [4, 20]: <0.25 µg/mL
- MIC (E. coli RGN238 (OXA-1); [22]): > 32 µg/mL
- MIC, combination of CAZ and compounds of the invention (E. coli RGN238 (OXA-1); [20]): ≤0.125 µg/mL
- MIC [5, 22]: 0.031 µg/mL
- MIC, combination of CAZ and compounds of the invention [5, 20]: <0.25 µg/mL
- MIC [6, 22]: 0.031 µg/mL
- MIC, combination of CAZ and compounds of the invention [6, 20]: <0.25 µg/mL
- MIC [7, 22]: 2 µg/mL
- MIC, combination of CAZ and compounds of the invention [7, 20]: <0.25 µg/mL
- MIC ([8]; Escherichia coli, strain UFR61O (E. coli), read-out: MIC compounds of the invention alone): 0.031 µg/mL
- MIC, combination of CAZ and compounds of the invention ([8]; MIC of ceftazidime with compound fixed at 4 μg/mL, strain UFR610 (E. coli)): <0.25 µg/mL
- MIC [9, 22]: > 32 µg/mL
- MIC, combination of CAZ and compounds of the invention [9, 20]: 4 µg/mL
- MIC [10, 23]: > 32 µg/mL
- MIC, combination of CAZ and compounds of the invention [10, 20]: 0.5 µg/mL
- MIC ([11]; Klebsiella pneumoniae, BAA1898, read-out: MIC compounds of the invention alone): > 32 µg/mL
- MIC, combination of CAZ and compounds of the invention [11, 20]: 0.5 µg/mL
- MIC [12, 23]: > 32 µg/mL
- MIC, combination of CAZ and compounds of the invention [12, 20]: 4 µg/mL
- MIC [13, 23]: > 32 µg/mL
- MIC, combination of CAZ and compounds of the invention [13, 20]: 2 µg/mL
- MIC, combination of CAZ and compounds of the invention [14, 20]: ≤0.125 µg/mL
- MIC [14, 24]: > 32 µg/mL
- MIC, combination of CAZ and compounds of the invention [15, 20]: <0.25 µg/mL
- MIC [15, 24]: 2 µg/mL
- MIC, combination of CAZ and compounds of the invention [16, 20]: <0.25 µg/mL
- MIC [16, 24]: 1 µg/mL
- MIC, combination of CAZ and compounds of the invention [17, 20]: <0.25 µg/mL
- MIC [17, 24]: 2 µg/mL
- MIC, combination of CAZ and compounds of the invention [18, 20]: <0.25 µg/mL
- MIC [18, 24]: 4 µg/mL
- MIC, combination of CAZ and compounds of the invention [19, 20]: <0.25 µg/mL
- MIC [19, 24]: 8 µg/mL
